Measured values: US7198906B2, “Drug sensitivity measuring method” (priority 2000, dated 2007)

Columns and labels:
[1] = test system: E. coli sensitive strain JM109; test: Drug susceptibility measurement with dissolved oxygen electrode, sensitive strain; format: cell-based
Excerpt: (§1) In step SP1, measurement of currents (output signals) is started by applying predetermined voltages to electrodes for measuring dissolved oxygen concentration. The electrodes are provided within a first compartment or well, second compartment or well, and third compartment or well, respectively. The first compartment or well is a compartment or well containing only physiological salt solution. The second compartment or well is a compartment or well containing physiological salt solution and drug solution of a first predetermined concentration. The third compartment or well is a compartment or well containing physiological salt solution and drug solution of a second predetermined concentration. […] In step SP4, current from each electrode for measuring dissolved oxygen concentration is measured at a second time interval for a third time period (for example, at every 1 second for 60 seconds). In step SP5, each time is obtained based upon each of the measured currents at which the maximum current is obtained. […] In step SP7, drug susceptibility is detected based upon the variation condition of each current value during the fourth time period. […]
(§2) Next, the electrode for measuring the dissolved oxygen concentration is mounted to each compartment or well. […] After the measurement time of 360 seconds has passed, the measured currents are stored and the measured currents are analyzed. […]

[2] = test system: E. coli resistant strain 5W (ABPC plasmid introduction); test: Drug susceptibility measurement with dissolved oxygen electrode, resistant strain; format: cell-based
Excerpt: as §1, §2

## CC1(C)S[C@@H]2[C@H](NC(=O)[C@H](N)c3ccccc3)C(=O)N2[C@H]1C(=O)O [ABPC, Ampicillin]
[1]; JM109+ABPC, control JM109 as reference, FIGS. 2 and 3
  variation characteristic of measured current (dissolved oxygen) following passage in time, curve versus control: more gentle than curves each corresponding to the control and the resistant strain
[1]; sensitive strain JM109 + ABPC solution 5.3 μg/ml, entire amount 0.25 ml and 0.5 ml, control JM109 without drug = 100%
  inclination of measured current for 10 seconds from the peak timing, supposing the inclination corresponding to the control to be 100%: 79.0–85.4%
[2]; 5W+ABPC, control JM109 as reference, FIGS. 2 and 3
  variation characteristic of measured current (dissolved oxygen) following passage in time, curve versus control: equal to or more steep than the curve corresponding to the control
[2]; resistant strain 5W + ABPC solution 5.3 μg/ml, entire amount 0.25 ml and 0.5 ml, control JM109 without drug = 100%
  inclination of measured current for 10 seconds from the peak timing, supposing the inclination corresponding to the control to be 100%: 96.1–122.9%
